Results taken from ChEMBL document CHEMBL4825757, “Optimization of 4,6-Disubstituted Pyrido[3,2-d]pyrimidines as Dual MNK/PIM Inhibitors to Inhibit Leukemia Cell Growth” (J Med Chem, 2021).
The source made the active and inactive calls. No cut-off for these calls is given here.

How the values were obtained:
MOLM-13 [1] = assay: Induction of apoptosis in human MOLM-13 cells assessed as late apoptotic cells at 40 uM incubated for 12 hrs by annexin-V and propidium iodide staining based flow cytometry analysis (reference value: 3.03%); assay type: functional
MOLM-13 [2] = assay: Downregulation of c-myc levels in human MOLM-13 cells at 20 to 40 uM incubated for 12 hrs by western blot analysis; assay type: functional, cell-based; conditions: dose 20-40 µM
MOLM-13 [3] = assay: Induction of apoptosis in human MOLM-13 cells assessed as necrotic cells at 20 uM incubated for 12 hrs by annexin-V and propidium iodide staining based flow cytometry analysis (reference value: 0.06%); assay type: functional
[4] = molecular target: T1, Serine/threonine-protein kinase PIM (Homo sapiens) (UniProt P11309+Q9P1W9+Q86V86); assay: Inhibition of PIM in human MOLM-13 cells assessed as reduction of BAD phosphorylation at 20 to 40 uM incubated for 12 hrs by western blot analysis; assay type: cell-based; conditions: dose 20-40 µM
T1 sequence (P11309 whole entry, looked up): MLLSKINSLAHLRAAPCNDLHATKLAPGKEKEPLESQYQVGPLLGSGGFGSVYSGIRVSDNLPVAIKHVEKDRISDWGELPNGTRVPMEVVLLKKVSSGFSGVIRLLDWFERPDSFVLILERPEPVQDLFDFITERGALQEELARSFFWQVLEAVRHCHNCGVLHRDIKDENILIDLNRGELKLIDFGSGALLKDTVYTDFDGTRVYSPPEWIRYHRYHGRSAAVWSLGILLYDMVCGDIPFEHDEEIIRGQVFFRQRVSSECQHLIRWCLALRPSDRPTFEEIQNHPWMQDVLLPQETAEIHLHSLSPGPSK
T1 sequence (Q9P1W9 whole entry, looked up): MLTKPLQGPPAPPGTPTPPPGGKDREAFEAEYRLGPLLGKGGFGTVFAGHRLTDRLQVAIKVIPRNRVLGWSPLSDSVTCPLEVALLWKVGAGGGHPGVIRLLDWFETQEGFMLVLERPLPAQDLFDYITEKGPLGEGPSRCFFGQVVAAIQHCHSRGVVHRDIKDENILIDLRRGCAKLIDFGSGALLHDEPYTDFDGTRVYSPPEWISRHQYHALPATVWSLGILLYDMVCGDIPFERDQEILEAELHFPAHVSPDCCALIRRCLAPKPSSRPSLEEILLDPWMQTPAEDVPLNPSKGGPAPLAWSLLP

MOLM-13 [5] = assay: Induction of cell cycle arrest in human MOLM-13 cells assessed as sub-G1 phase at 20 uM incubated for 12 hr by propidium iodide based flow cytometry analysis (Rvb= 4.78%); assay type: functional
MOLM-13 [6] = assay: Antiproliferative activity against human MOLM13 cells assessed as reduction of cell viability incubated for 72 hrs by trypan blue staining based cell counting analysis; assay type: functional
[7] = molecular target: MAP kinase-interacting serine/threonine-protein kinase 1 (Homo sapiens, UniProt Q9BUB5); assay: Inhibition of MKN1 (unknown origin) at 1 uM in presence of ATP by HTRF assay
MAP kinase-interacting serine/threonine-protein kinase 1, sequence (Q9BUB5 whole entry, looked up): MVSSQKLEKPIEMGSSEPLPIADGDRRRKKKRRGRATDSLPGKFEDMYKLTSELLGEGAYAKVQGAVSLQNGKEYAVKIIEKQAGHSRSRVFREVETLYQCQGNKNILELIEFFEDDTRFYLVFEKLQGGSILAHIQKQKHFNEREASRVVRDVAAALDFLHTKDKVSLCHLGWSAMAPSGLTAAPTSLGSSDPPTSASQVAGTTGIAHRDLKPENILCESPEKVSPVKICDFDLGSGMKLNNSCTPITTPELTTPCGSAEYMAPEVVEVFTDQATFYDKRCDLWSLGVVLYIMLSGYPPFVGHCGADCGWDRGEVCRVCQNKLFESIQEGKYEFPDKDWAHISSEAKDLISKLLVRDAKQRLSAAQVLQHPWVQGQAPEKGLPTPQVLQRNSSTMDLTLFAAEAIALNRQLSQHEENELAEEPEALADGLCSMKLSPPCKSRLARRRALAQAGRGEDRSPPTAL

MOLM-13 [8] = assay: Induction of apoptosis in human MOLM-13 cells assessed as necrotic cells at 40 uM incubated for 12 hrs by annexin-V and propidium iodide staining based flow cytometry analysis (reference value: 0.06%); assay type: functional
[9] = molecular target: T1, Serine/threonine-protein kinase PIM (Homo sapiens); assay: Inhibition of PIM in human MOLM-13 cells assessed as reduction in phosphorylated 4EBP1 at 20 to 40 uM incubated for 12 hrs by western blot analysis; assay type: cell-based; conditions: dose 20-40 µM
HL-60 = assay: Antiproliferative activity against human HL-60 cells assessed as reduction of cell viability incubated for 72 hrs by trypan blue staining based cell counting analysis; assay type: functional
K562 = assay: Antiproliferative activity against human K562 cells assessed as reduction of cell viability incubated for 72 hrs by trypan blue staining based cell counting analysis; assay type: functional
MOLM-13 [10] = assay: Downregulation of mcl-1 levels in human MOLM-13 cells at 20 to 40 uM incubated for 12 hrs by western blot analysis; assay type: functional, cell-based; conditions: dose 20-40 µM
MOLM-13 [11] = assay: Induction of cell cycle arrest in human MOLM-13 cells assessed as G1 phase at 40 uM incubated for 12 hr by propidium iodide based flow cytometry analysis (Rvb= 51.29%); assay type: functional
MOLM-13 [12] = assay: Induction of apoptosis in human MOLM-13 cells assessed as late apoptotic cells at 20 uM incubated for 12 hrs by annexin-V and propidium iodide staining based flow cytometry analysis (reference value: 3.03%); assay type: functional
MOLM-13 [13] = assay: Downregulation of cyclin-D1 levels in human MOLM-13 cells at 20 to 40 uM incubated for 12 hrs by western blot analysis; assay type: functional, cell-based; conditions: dose 20-40 µM
MOLM-13 [14] = assay: Induction of apoptosis in human MOLM-13 cells assessed as live cells at 20 uM incubated for 12 hrs by annexin-V and propidium iodide staining based flow cytometry analysis (reference value: 91.49%); assay type: functional
MOLM-13 [15] = assay: Induction of apoptosis in human MOLM-13 cells assessed as early apoptotic cells at 20 uM incubated for 12 hrs by annexin-V and propidium iodide staining based flow cytometry analysis (reference value: 5.40%); assay type: functional
MOLM-13 [16] = assay: Induction of apoptosis in human MOLM-13 cells assessed as early apoptotic cells at 40 uM incubated for 12 hrs by annexin-V and propidium iodide staining based flow cytometry analysis (reference value: 5.40%); assay type: functional
MOLM-13 [17] = assay: Induction of cell cycle arrest in human MOLM-13 cells assessed as sub-G1 phase at 40 uM incubated for 12 hr by propidium iodide based flow cytometry analysis (Rvb= 4.78%); assay type: functional
MOLM-13 [18] = assay: Induction of cell cycle arrest in human MOLM-13 cells assessed as G1 phase at 20 uM incubated for 12 hr by propidium iodide based flow cytometry analysis (Rvb= 51.29%); assay type: functional
MOLM-13 [19] = assay: Induction of apoptosis in human MOLM-13 cells assessed as live cells at 40 uM incubated for 12 hrs by annexin-V and propidium iodide staining based flow cytometry analysis (reference value: 91.49%); assay type: functional

inhibition [4]: inactive | GI50 (MOLM-13 [6]): 9.88 µM | inhibition [7]: 78% | inhibition [9]: Active | GI50 (HL-60): 7.26 µM | GI50 (K562): 28.8 µM
Structure (SMILES): Nc1ncnc2[nH]nc(Nc3ccc(F)cc3)c12
Activity (MOLM-13 [1]): 2.73% | Activity (MOLM-13 [2]): Active | Activity (MOLM-13 [3]): 0.04% | Activity (MOLM-13 [5]): 8.3% | Activity (MOLM-13 [8]): 0.18% | Activity (MOLM-13 [10]): Active | Activity (MOLM-13 [11]): 62.49% | Activity (MOLM-13 [12]): 3.05% | Activity (MOLM-13 [13]): Active | Activity (MOLM-13 [14]): 86.89% | Activity (MOLM-13 [15]): 9.93% | Activity (MOLM-13 [16]): 13.19% | Activity (MOLM-13 [17]): 12.28% | Activity (MOLM-13 [18]): 65.2% | Activity (MOLM-13 [19]): 83.9%
